According to patent publication US20100167397A1, “ENDOCRINE CELL LINES AND METHOD OF USING THE SAME” (KYOWA HAKKO KOGYO CO., LTD., priority 2002, published 2010):
Values belong to the molecule of their own block, whether it stands above or below them.

Tests used:
leptin receptor (Ob-Rb) [1] = target: T1, leptin receptor (Ob-Rb) (Rattus norvegicus, UniProt Q62959); assay: Leptin reactivity: immunostaining using an anti-STAT antibody (STAT3 transfer from cytoplasm to nucleus); assay type: cell-based; conditions: NC-6, NC-12 and AMN2-25; 100 nmol/L human leptin, 37° C., 15 minutes; without leptin cytoplasm was stained
T1 construct: endogenous in cells; host or cells: rat hypothalamus-derived immortalized lines NC-6, NC-12, AMN2-25
T1 sequence (Q62959 22-1162): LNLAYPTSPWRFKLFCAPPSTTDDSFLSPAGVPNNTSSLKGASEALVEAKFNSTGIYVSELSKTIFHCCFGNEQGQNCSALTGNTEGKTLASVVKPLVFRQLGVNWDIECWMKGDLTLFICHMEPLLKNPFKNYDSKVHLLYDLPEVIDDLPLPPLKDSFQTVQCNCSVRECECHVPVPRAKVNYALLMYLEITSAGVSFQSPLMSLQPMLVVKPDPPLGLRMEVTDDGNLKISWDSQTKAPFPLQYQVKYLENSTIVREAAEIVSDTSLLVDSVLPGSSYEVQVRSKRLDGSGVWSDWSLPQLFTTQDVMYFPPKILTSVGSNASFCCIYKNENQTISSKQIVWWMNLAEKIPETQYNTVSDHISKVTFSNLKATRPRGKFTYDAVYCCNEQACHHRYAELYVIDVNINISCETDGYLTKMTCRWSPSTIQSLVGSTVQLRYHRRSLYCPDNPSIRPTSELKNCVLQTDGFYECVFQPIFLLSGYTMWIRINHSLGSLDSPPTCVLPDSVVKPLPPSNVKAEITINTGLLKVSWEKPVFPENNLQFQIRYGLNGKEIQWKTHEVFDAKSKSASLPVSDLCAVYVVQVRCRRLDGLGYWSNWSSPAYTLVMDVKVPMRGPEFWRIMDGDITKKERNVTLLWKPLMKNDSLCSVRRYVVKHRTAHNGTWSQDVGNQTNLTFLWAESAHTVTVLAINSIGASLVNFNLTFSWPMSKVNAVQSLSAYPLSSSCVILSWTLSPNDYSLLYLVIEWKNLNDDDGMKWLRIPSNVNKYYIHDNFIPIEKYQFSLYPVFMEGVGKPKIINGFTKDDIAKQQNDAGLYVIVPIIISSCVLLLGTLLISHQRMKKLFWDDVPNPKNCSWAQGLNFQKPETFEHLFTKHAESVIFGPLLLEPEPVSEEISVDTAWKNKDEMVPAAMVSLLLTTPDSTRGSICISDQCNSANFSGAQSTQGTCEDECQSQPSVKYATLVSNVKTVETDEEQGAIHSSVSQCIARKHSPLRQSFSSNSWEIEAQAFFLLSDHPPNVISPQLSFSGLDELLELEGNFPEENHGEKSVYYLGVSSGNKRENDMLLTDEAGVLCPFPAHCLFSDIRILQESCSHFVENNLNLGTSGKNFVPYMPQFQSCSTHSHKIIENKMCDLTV
Experimental: In a cell line where expression of a leptin receptor (Ob-Rb) protein is confirmed by the method mentioned in Example 7, it was analyzed by the following method whether a functional Ob-Rb is expressed. The following method is a method where the fact that a transcription factor STAT3 is phosphorylated upon stimulation by leptin and is transferred from cytoplasm to nucleus is utilized.
NC-6, NC-12 and AMN2-25 expressing leptin receptor (Ob-Rb) protein are cultured according to the method mentioned in Example 1. After the cultivation, about 1×10^3 cells were plated on 8 chambers coated with CELL-TAK and cultured for 3 days where cultivation temperature was shifted from 33° C. to 37° C. […] After the cultivation, exchange to a DMEM/F-12 (-FCS) medium was conducted. After 2 hours from the exchange of the medium, the cells were stimulated with 100 nmol/L of human leptin (manufactured by R&D Systems) at 37° C. for 15 minutes.
After the stimulation, immunostaining was carried out using an anti-STAT antibody (manufactured by NEB) and a cyanine 3-labeled anti-rabbit IgG (secondary antibody) diluted to an extent of 200-fold. The immunostaining was carried out according to the manual of Phospho Plus Stat 3 (Tyr 705) Antibody it (NEB). […] After the staining, drying was conducted, mounting with a discoloration inhibitor solution was done and an observation under a fluorescence microscope was carried out.

leptin receptor (Ob-Rb) [2] = target: T1, leptin receptor (Ob-Rb); assay: Leptin reactivity: change in expression of c-fos gene and SOCS-3 gene by PCR; assay type: cell-based; conditions: NC-6, NC-12 and AMN2-25; 100 nmol/L human leptin, 0 minute, 30 minutes or 1 hour
Experimental: Expression of c-fos gene and SOCS-3 gene, which has been known to be increased in hypothalamic cells by leptin stimulation, was analyzed by the following method utilizing a PCR whereby the leptin reactivity of the cell line, which was confirmed to be expressing a functional OB-Rb in the above (1), was confirmed from another view.
NC-6, NC-12 and AMN2-25 were cultured according to the method mentioned in Example 1. After the cultivation, about 2×10^4 cells were plated on a 35-mm dish coated with poly-lysine and cultured out for 5 days by shifting the cultivation temperature from 33° C. to 37° C. […] After the cultivation, exchange to a DMEM/F-12 (-FCS) medium was done.
After 2 hours from the exchange of the medium, 100 nmol/L of human leptin (manufactured by R&D Systems) was added. After incubating at 37° C. for 0 minute, 30 minutes or 1 hour, total RNA was collected from each cell line using an RNeasy Mini Kit (manufactured by Qiagen). Single-stranded cDNA was synthesized from the total RNA according to the method mentioned in Example 6 and a PCR was carried out using the cDNA as a template. With regard to primers specific to c-fos gene, synthetic DNAs having the nucleotide sequences of SEQ ID NOS: 45 and 46 were used while, with regard to primers specific to SOCS-3 gene, synthetic DNAs having the nucleotide sequences of SEQ ID NOS: 47 and 48 were used. […]

CRE reporter in GBCC13 = assay: Constitutive activity of GPCR, Method 2 (GBCC13 host, firefly luciferase); assay type: cell-based, human; conditions: activity with 17β-estradiol divided by activity without, control plasmid about 1
Experimental: After the incubation, Steady Glo Luciferase Assay System (manufactured by Promega) was added and firefly luciferase activity was measured. For the measurement of activity, Auto Lumat LB953 (manufactured by Berthold) or Top Count (Packard) was used. […] It is judged that the higher the induction ratio of the cells to which a GPCR expression plasmid was transfected, the stronger the constitutive activity of the GPCR.

CRE reporter in GBC7 = assay: Constitutive activity of GPCR, Method 4 (GBC7 host, firefly luciferase); assay type: cell-based, human; conditions: activity with 17β-estradiol divided by activity without, control plasmid about 1
Experimental: This is a measuring method for constitutive activity of GPCR which is the same as Method 2 except that GBC7 was used as a host and no puromycin was added in the incubation of the transformants.
(§1) In each method, the induction ratio of the cells transfected with the control plasmid was about 1. It is judged that the higher the induction ratio of the cells to which a GPCR expression plasmid was transfected, the stronger the constitutive activity of the GPCR.

sulfonylurea receptor [3] = target: T2, sulfonylurea receptor (Rattus norvegicus, UniProt Q09429); assay: Intracellular Ca2+ rise on sulfonylurea in single clones derived from Langerhans islets (Fura-2AM); assay type: cell-based; conditions: single clones M-6, M-9, M-15, M-19, M-20, M-33, M-43, F-1 and F-9; 0.5 mmol/L
T2 construct: endogenous in cells; host or cells: rat islet-derived clones M-6, M-9, M-15, M-19, M-20, M-33, M-43, F-1, F-9
Experimental: About 5×10^6 cells of single clones (M-6, M-9, M-15, M-19, M-20, M-33, M-43, F-1 and F-9) of immortalized cell lines mentioned in Example 11 obtained using an RPMI 1640 (05918) medium were plated on a 60-mm dish and cultured at 33° C. for 2 days using an RPMI 1640 (05918) medium.
After the cultivation, it was washed with an HBSS buffer (manufactured by Gibco) for two times and the cells were floated. Sulfonylurea (Tolbutamide, manufactured by Alexis) was added to about 1×10^6 of the cells so as to make the final concentration 0.5 mmol/L whereupon an increase in Ca^2+ concentration in the cells was checked. Measurement of the Ca^2+ concentration in the cells was carried out using a CAF-100 instrument (manufactured by Nippon Bunko).

sulfonylurea receptor [4] = assay: Intracellular Ca2+ rise on sulfonylurea in immortalized cell lines derived from hypothalamus (Fura-2AM, CAF-110); assay type: cell-based, rat; conditions: 0.5 mmol/L
Experimental: The immortalized cell lines (a mixture) derived from hypothalamus of female adult rat obtained in Example 3 were cultured by the method mentioned in Example 1. […] The resulting cells were washed with an HBSS buffer (manufactured by Gibco) twice and the cells were floated. Sulfonylurea (Tolbutamide; manufactured by Alexis) was added to about 1×10^6 cell to make its final concentration 0.5 mmol/L and a rise in Ca^2+ concentration in the cells was checked. Measurement of the Ca^2+ concentration in the cells was conducted using a CAF-110 instrument (manufactured by Nippon Bunko).
As same as in the above (1), reactivity of an immortalized cell line (single clone AMN2-25) derived from hypothalamus of male adult rat obtained in Example 3 with sulfonylurea was tested.

CRE reporter in GBCR2 = assay: Constitutive activity of GPCR, Method 3 (GBCR2 host, Renilla reniformis luciferase); assay type: cell-based, human; conditions: activity with 17β-estradiol divided by activity without, control plasmid about 1
Experimental: This is a measuring method for constitutive activity of GPCR which is the same as Method 1 except that GBCR2 was used as a host and no puromycin was added in the incubation of the transformants.
as §1

T2 sequence (Q09429 whole entry): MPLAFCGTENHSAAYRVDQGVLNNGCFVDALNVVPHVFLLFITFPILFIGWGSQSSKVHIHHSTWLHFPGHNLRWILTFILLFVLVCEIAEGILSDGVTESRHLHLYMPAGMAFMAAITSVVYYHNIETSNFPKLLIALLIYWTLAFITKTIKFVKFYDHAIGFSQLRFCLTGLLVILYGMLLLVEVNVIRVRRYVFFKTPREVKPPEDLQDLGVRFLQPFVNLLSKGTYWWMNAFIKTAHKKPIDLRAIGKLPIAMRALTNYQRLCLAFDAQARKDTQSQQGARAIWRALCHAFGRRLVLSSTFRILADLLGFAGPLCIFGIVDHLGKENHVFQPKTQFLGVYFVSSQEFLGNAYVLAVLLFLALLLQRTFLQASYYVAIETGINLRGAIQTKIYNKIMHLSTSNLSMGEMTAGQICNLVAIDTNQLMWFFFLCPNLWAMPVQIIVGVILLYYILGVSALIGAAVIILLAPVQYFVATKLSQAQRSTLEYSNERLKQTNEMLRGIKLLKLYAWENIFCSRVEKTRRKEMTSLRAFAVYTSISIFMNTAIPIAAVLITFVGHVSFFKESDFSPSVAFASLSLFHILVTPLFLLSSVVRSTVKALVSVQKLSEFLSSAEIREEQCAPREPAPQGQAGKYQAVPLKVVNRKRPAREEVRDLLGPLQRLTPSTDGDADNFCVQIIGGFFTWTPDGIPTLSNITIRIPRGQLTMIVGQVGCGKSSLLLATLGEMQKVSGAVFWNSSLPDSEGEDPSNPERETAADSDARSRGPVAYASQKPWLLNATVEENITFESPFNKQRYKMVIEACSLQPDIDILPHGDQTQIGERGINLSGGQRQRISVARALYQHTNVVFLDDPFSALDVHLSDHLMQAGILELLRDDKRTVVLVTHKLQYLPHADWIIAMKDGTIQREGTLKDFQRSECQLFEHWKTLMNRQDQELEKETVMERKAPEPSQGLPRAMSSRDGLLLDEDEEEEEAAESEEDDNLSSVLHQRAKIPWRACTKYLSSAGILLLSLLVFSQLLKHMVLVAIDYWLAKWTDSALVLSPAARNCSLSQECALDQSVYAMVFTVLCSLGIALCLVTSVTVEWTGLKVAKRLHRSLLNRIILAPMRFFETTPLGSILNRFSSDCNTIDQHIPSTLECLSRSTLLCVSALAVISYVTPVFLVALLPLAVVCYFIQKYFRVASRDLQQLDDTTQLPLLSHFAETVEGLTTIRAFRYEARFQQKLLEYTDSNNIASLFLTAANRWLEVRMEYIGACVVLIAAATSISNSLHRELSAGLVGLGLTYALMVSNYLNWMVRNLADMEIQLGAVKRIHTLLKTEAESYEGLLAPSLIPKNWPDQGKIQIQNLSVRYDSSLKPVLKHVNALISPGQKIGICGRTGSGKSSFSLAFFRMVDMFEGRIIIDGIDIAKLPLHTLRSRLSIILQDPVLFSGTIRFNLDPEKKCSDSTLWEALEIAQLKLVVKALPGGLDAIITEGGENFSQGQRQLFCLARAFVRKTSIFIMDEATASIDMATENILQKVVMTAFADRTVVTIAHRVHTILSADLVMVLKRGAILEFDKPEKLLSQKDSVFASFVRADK
T2 sequence (P70673 whole entry partner): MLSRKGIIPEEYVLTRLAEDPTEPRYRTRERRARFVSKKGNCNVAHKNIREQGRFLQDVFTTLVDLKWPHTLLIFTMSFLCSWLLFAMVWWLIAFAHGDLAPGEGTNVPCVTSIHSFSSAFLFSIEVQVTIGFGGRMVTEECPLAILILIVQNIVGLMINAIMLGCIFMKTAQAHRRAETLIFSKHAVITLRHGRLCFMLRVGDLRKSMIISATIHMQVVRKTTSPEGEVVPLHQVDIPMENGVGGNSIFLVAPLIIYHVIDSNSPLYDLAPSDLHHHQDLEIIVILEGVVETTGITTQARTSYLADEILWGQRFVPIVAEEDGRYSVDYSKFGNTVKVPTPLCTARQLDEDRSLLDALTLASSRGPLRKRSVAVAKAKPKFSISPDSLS

Molecule: GPR 52
- Constitutive Activity (induction ratio) (CRE reporter in GBC7): 40-fold

Molecule: CCCCNC(=O)NS(=O)(=O)c1ccc(C)cc1 [sulfonylurea, Tolbutamide]
- Ca2+ concentration in the cells (sulfonylurea receptor [3]): increased
- rise in Ca2+ concentration in the cells (sulfonylurea receptor [4]; immortalized cell lines (a mixture) from hypothalamus of female adult rat): cell lines which reacted with sulfonylurea were present
- Ca2+ concentration in the cell (sulfonylurea receptor [4]; single clone AMN2-25): increased

Second part, the molecule after the results:

- STAT3 immunostaining upon stimulation with leptin (leptin receptor (Ob-Rb) [1]): the area inside the nucleus was stained
- expression of SOCS-3 gene by stimulation with leptin (leptin receptor (Ob-Rb) [2]): increased
- expression of c-fos gene by stimulation with leptin (leptin receptor (Ob-Rb) [2]): increased
Molecule: leptin: human leptin (manufactured by R&D Systems)

- Constitutive Activity (induction ratio) (CRE reporter in GBCC13): 4.8-fold
Molecule: GPR 25

- Constitutive Activity (induction ratio) (CRE reporter in GBCR2): 188-fold
B1: GPR 12 (protein, UniProt P47775 1-334, looked up)
G-protein coupled receptor 12: MNEDLKVNLSGLPRDYLDAAAAENISAAVSSRVPAVEPEPELVVNPWDIVLCTSGTLISCENAIVVLIIFHNPSLRAPMFLLIGSLALADLLAGIGLITNFVFAYLLQSEATKLVTIGLIVASFSASVCSLLAITVDRYLSLYYALTYHSERTVTFTYVMLVMLWGTSICLGLLPVMGWNCLRDESTCSVVRPLTKNNAAILSVSFLFMFALMLQLYIQICKIVMRHAHQIALQHHFLATSHYVTTRKGVSTLAIILGTFAACWMPFTLYSLIADYTYPSIYTYATLLPATYNSIINPVIYAFRNQEIQKALCLICCGCIPSSLAQRARSPSDV
